Reference: patent US20220409617A1, “Drug Formulations and Methods of Treatment for Metabolic Disorders” (The Regents of the University of California, priority 2019, published 2022)
“Also recorded” adds a separate entry of the source.

What was measured:
[1] = system: mouse embryonic fibroblasts (MEFs); assay: Ceramide-induced (C16:0 CER, C2-ceramide) mitochondrial fragmentation; format: cell-based; conditions: MEFs; C16:0 CER 100 μM or C2-ceramide 50 μM 3 h; 893 5 μM, mdivi-1 50 μM, M1 5 μM, leflunomide 50 μM, P110 1 μM
Description: (§1) 3T3-L1 cells were maintained in DMEM with 10% FBS and 1% penicillin-streptomycin until induced to differentiate. 3T3-L1 pre-adipocytes were differentiated as described in (M. P. Valley, et al., Anal. Biochem. 505: 43-50, 2016, the disclosure of which is incorporated herein by reference) with slight modifications. Briefly, pre-adipocytes were grown to confluence. After 2 d, cells were induced with maintenance media containing 500 μM IBMX (15879, Sigma-Aldrich, St. Louis, Mo.), 1 μM dexamethasone (D4902, Sigma-Aldrich), 5 μg/mL bovine insulin (10516, Sigma-Aldrich), and 5 μM troglitazone (50-115-0786, ApexBio). Media was changed every 2-3 d for 7 d. On day 7 post-induction, media was changed to maintenance media+5 μg/mL bovine insulin. On day 9 post-induction, media was changed to maintenance media. Mature adipocytes were used 12-14 d post-induction for all experiments. LSL-KrasG12D mouse embryonic fibroblasts (MEFs) with and without Cre-mediated deletion of the STOP cassette were obtained from David Tuveson (Cold Spring Harbor Laboratory, Cold Spring Harbor N.Y., USA) in 2000. p53^flox/flox MEFs were derived in house (2015) from C57BL/6 mice using standard techniques and immortalized by transient expression of Cre recombinase and deletion of p53. MEFs were cultured and maintained in DMEM with 10% FBS and 1% penicillin-streptomycin. A549 cells were cultured in DMEM with 10% FBS, 1% penicillin-streptomycin and 1% sodium pyruvate. Stock solution of palmitic acid (ACROS Organics, cat # AC129702500) was prepared at 100 mM in ethanol. Palmitate (250 μM) was conjugated to 1% (w/v) fatty-acid free bovine serum albumin (Sigma, A8806) in DMEM at 37° C. for 20 min. For all immunofluorescence assays, 8,000 MEFs were seeded into 8-chamber slides (Cellvis, cat # C8-1.5H-N) 12-16 h before treatment. Cells were pre-treated with sphingolipid-like compound 893 (5 μM in water), myriocin (10 μM in methanol), fumonisin-B1 (30 μM in DMSO), or celastrol (500 nM in DMSO) for 3 h followed by a 3 h treatment with BSA-conjugated palmitate mixture or BSA alone. Where cells were treated with C2-ceramide (50 μM in DMSO) or C16:0 ceramide (100 μM in ethanol) for 3 h, cells were pre-treated with sphingolipid-like compound 893 for 1-3 h as indicated, mdivi-1 (50 μM in DMSO) for 1 h or 24 h, M1 (5 μM in DMSO) for 24 h, mdivi-1 and M1 together for 24 h, leflunomide (50 μM in methanol) for 1 h or 24 h, or with P110 (1 μM in water) for 1 h or 12 h. LSL or KRAS^G12D MEFs were treated with sphingolipid-like compound 893 (5 μM) for 6 h prior to fixation.
MEFs were washed twice with PBS and fixed with 4% paraformaldehyde for 10 min at RT. Cells were permeabilized with 0.3% Triton X-100 in blocking buffer containing 10% fetal bovine serum for 20 min at 37° C. followed by overnight incubation with mouse anti-citrate synthase (sc-390693, Santa Cruz Biotechnology; dilution, 1:200) or rabbit-anti-DRP1 at 1:100 (#8570, Cell Signaling Technology) at 4° C. Cells were then washed twice with PBS and incubated with AlexaFluor 488 goat anti-mouse (A28175, Invitrogen) or AlexaFluor 594 donkey anti-rabbit (A32754, Invitrogen) secondary antibodies at RT followed by 5 min incubation with 1 μg/ml DAPI and 2 washes in PBS. For NADH autofluorescence studies, mice were gavaged with vehicle or 120 mg/kg sphingolipid-like compound 893 at ZT8.5 (4-10.5 h before sacrifice between ZT12.5 and ZT18). Post sacrifice, livers were excised, washed 3× with PBS, placed in DMEM supplemented with 10% FBS and 1% penicillin-streptomycin, and immediately imaged. NADH/NADPH autofluorescence was detected with 740 nm excitation and 450±50 nm detectors using a Mai Tai two-photon laser. Fluorescence microscopy was performed on a Zeiss LSM 780 confocal using a 63× oil objective with a […] numerical aperture (NA) or using a Nikon TE2000-S inverted epifluorescence microscope with a 100× oil objective (1.3 NA) and a Photometrics CoolSNAP ES2 monochrome CCD camera. […]

[2] = system: mouse embryonic fibroblasts (MEFs); format: cell-based; conditions: 3 h pre-treatment then palmitate 250 μM 3 h, 893 5 μM, myriocin 10 μM, fumonisin B1 30 μM, NAV-2729 12.5 μM, YM201636 800 nM, celastrol 500 nM
Description: Mitochondrial morphology was assessed by examining citrate synthesis expression under a high resolution microscopy. Specifically, the aspect ratio, branch length and roundness of mitochondria was assessed (FIG. 1).
LSL-KrasG12D mouse embryonic fibroblasts (MEFs) with and without Cre-mediated deletion of the STOP cassette were obtained from David Tuveson (Cold Spring Harbor Laboratory, Cold Spring Harbor N.Y., USA) in 2000. p53^flox/flox MEFs were derived in house (2015) from C57BL/6 mice using standard techniques and immortalized by transient expression of Cre recombinase and deletion of p53. MEFs were cultured and maintained in DMEM with 10% FBS and 1% penicillin-streptomycin. […] Stock solution of palmitic acid (ACROS Organics, cat # AC129702500) was prepared at 100 mM in ethanol. Palmitate (250 μM) was conjugated to 1% (w/v) fatty-acid free bovine serum albumin (Sigma, A8806) in DMEM at 37° C. for 20 min. For all immunofluorescence assays, 8,000 MEFs were seeded into 8-chamber slides (Cellvis, cat # C8-1.5H-N) 12-16 h before treatment. Cells were pre-treated with sphingolipid-like compound 893 (5 μM in water), myriocin (10 μM in methanol), fumonisin-B1 (30 μM in DMSO), or celastrol (500 nM in DMSO) for 3 h followed by a 3 h treatment with BSA-conjugated palmitate mixture or BSA alone.

[3] = system: C16:0 ceramide generation (CerS6); assay: C16:0 ceramide levels in palmitate-treated MEFs (UPLC-MS/MS); format: cell-based, mouse; conditions: MEFs; 3 h pre-treatment (893 5 μM, myriocin 10 μM, fumonisin B1 30 μM) then palmitate 250 μM 3 h
Description: Plasma pharmacokinetic analysis of sphingolipid-like compound 893 was performed by Pharmaron Corporation (Beijing, China). C16:0 ceramide levels were quantified in cells using the method described in (T. Kasumov, et al., Anal. Biochem. 401: 154-161, 2010, the disclosure of which is incorporated herein by reference) with minor modifications. Cultured cells were washed twice in PBS and scraped into 250 μL of HPLC grade water and flash frozen until time of analysis. On the day of analysis, samples were thawed, and an aliquot used for protein quantification. For C16:0 ceramide levels in mouse liver, 25 mg of tissue was homogenized in 1 ml of ice-cold PBS using a mechanical probe homogenizer (VWR, Radnor, Pa.), protein levels quantified, and 50 μl of the homogenate diluted with 150 μl HPLC-grade water for C16:0 ceramide analysis. Fifty ng of C17:0 ceramide prepared in ethanol (#22532, Cayman Chemical, Ann Arbor, Mich.) was added into 200 μL of the thawed cell suspension or liver homogenate as an internal standard to control for varying extraction efficiency; 750 μL of an ice-cold 1:2 chloroform/methanol mixture was then added. Samples were sonicated for 30 min and phase separation induced by the addition of 250 μL each of chloroform and HPLC-grade water. Samples were centrifuged at 4° C. for 10 min and the lower lipid phase transferred to a clean tube. The remaining protein and aqueous layers were re-extracted with an additional 500 μL of chloroform. Lipid phases were combined and then dried under vacuum. Dried extract was re-constituted in 100% acetonitrile immediately before analysis. Samples were analyzed by ultra-performance liquid chromatography tandem mass spectrometry (UPLC-MS/MS) using a Waters Micromass Quattro Premier XE equipped with a Waters ACQUITY BEH C4 column (Waters Corp.). Samples were resolved starting at 60% mobile phase A (10 mM ammonium acetate and 0.05% formic acid in water) to 98% mobile phase B (60:40 acetonitrile:isopropanol) over 3 min with a linear gradient, held at 98% B for 1 min, then the column was equilibrated with 60% A for 1 min. The mass spectrometer was operated in positive ion mode with the following parameters: cone voltage 20 V, source temperature 125° C., desolvation temperature 400° C. Ion transition channels for MS/MS were 538→264 for C16:0 ceramide and 552→264 for C17:0 ceramide, both with a dwell time of 285 ms. Standard curves prepared from C16:0 ceramide (#860516, Avanti Polar Lipids, Alabaster, Ala.) dissolved in ethanol were used for quantitation and were linear from 4.1 nM-1,000 nM, with an R^2 of 0.98 or greater.
3T3-L1 cells were maintained in DMEM with 10% FBS and 1% penicillin-streptomycin until induced to differentiate. […]

A549 lung cancer cells = assay: KRAS-mediated mitochondrial fission in A549 cells; format: cell-based, human; conditions: A549, oncogenic KRAS; 893 5 μM 1 h, leflunomide 50 μM 24 h
Description: as §1, with “Where cells were treated with C2-ceramide (50 μM in DMSO) or C16:0 ceramide (100 μM in ethanol) for 3 h, cells were pre-treated with sphingolipid-like compound 893 for 1-3 h as indicated, mdivi-1 (50 μM in DMSO) for 1 h or 24 h, M1 (5 μM in DMSO) for 24 h, mdivi-1 and M1 together for 24 h, leflunomide (50 μM in methanol) for 1 h or 24 h, or with P110 (1 μM in water) for 1 h or 12 h. LSL or KRAS^G12D MEFs were treated with sphingolipid-like compound 893 (5 μM) for 6 h prior to fixation.” left out
MEFs were washed twice with PBS and fixed with 4% paraformaldehyde for 10 min at RT. […] NADH/NADPH autofluorescence was detected with 740 nm excitation and 450±50 nm detectors using a Mai Tai two-photon laser. Fluorescence microscopy was performed on a Zeiss LSM 780 confocal using a 63× oil objective with a […] numerical aperture (NA) or using a Nikon TE2000-S inverted epifluorescence microscope with a 100× oil objective (1.3 NA) and a Photometrics CoolSNAP ES2 monochrome CCD camera. […]

| Molecule | Protection from ceramide-induced mitochondrial fragmentation [1] | Protection from palmitate-induced mitochondrial fragmentation (aspect ratio, branch length, roundness) [2] | Palmitate-induced C16:0 ceramide production [3] | Reversal of mitochondrial fragmentation / tubularity in A549 cells (A549 lung cancer cells) |
| --- | --- | --- | --- | --- |
| CC(=NNc1c(Cl)cc(Cl)cc1Cl)c1cc(Cl)ccc1O [M1] | neither compound alone or in combination prevented ceramide- or KRAS-induced mitochondrial fragmentation | – | – | – |
| CCCC[C@@H](C)[C@@H](OC(=O)C[C@@H](CC(=O)O)C(=O)O)[C@H](C[C@@H](C)C[C@H](O)CCCC[C@@H](O)C[C@H](O)[C@H](C)N)OC(=O)C[C@@H](CC(=O)O)C(=O)O [fumonisin B1] | – | prevented palmitate-induced morphological changes | Blocking ceramide production | did not increase mitochondrial tubularity in A549 cells |
| COc1cc(-n2c(=S)[nH]c3ccccc3c2=O)c(Cl)cc1Cl [mdivi-1] | failed to prevent C16:0 ceramide-induced mitochondrial fragmentation; also recorded: neither compound alone or in combination prevented ceramide- or KRAS-induced mitochondrial fragmentation | – | – | – |
| CCCCCCC(=O)CCCCCC/C=C/C[C@@H](O)[C@H](O)[C@@](N)(CO)C(=O)O [myriocin] | – | prevented palmitate-induced morphological changes | Blocking ceramide production | did not increase mitochondrial tubularity in A549 cells |
| NAV-2729 | – | partial protection from palmitate-induced mitochondrial fragmentation | – | – |
